According to US10358531B2, “Crosslinked polymer nano-assemblies and uses thereof” (University of Massachusetts, priority 2011, dated 2019):

How the values were obtained:
HeLa cells [1] = experiment: Intracellular delivery of DiI and FITC-β-gal by confocal microscopy; assay type: cell-based; settings: without nanogel
Method: Intracellular delivery of DiI and β-gal was also tested. As the nanogels consist of biodegradable disulfide crosslinkers, the release of the complexed protein and encapsulated lipophilic molecule can be triggered upon exposure to glutathione (present at higher concentrations inside the cells (mM), compared to the extracellular concentration […]). To compare the release profile of these dual delivery systems, NG1-CRRR and NG2-CRRR containing DiI in its interior and complexed with FITC labeled β-gal, were added to HeLa cells with serum and without serum. In the case of cell internalization of both encapsulated DiI and FITC labeled protein, a yellow color would be observed due to the co-localization and overlay of both red and green fluorophores for DiI and FITC, respectively. If there is no internalization of the nanogel, no color could be observed.
Fluorescence distribution of DiI and FITC was observed over time by confocal fluorescence microscopy with simultaneous excitation of both dye molecules at 488 nm and 543 nm for FITC and DiI, respectively. As shown in FIGS. 33a and 33b, green and red emissions were observed when the cells were treated with the nanogel-protein complexes. […] The green fluorescence of the FITC (label for protein) and red fluorescence for DiI (encapsulated small molecule) appear uniformly distributed. […]

[2] = DLS size of NG-CRRR nanogels, β-gal and complexes; estimated numbers per complex; assay type: physicochemical
From the text: Also evaluated were the size change and charge alteration of the nanogel surface due to the complexation event using DLS and zeta potential measurements respectively.

MCF7 cells = experiment: Toxicity of PTX-loaded carriers, Alamar Blue assay; assay type: cell-based; settings: MCF7, 72 h, 10 μM PTX
Method: (§1) Selective delivery of chemotherapeutic drug. To test whether the observed target selectivity would translate into differential cell kill efficiency, the ligand-coated nanogels encapsulating a chemotherapeutic drug molecule, paclitaxel (PTX) were prepared. The PTX-loaded polymeric aggregates (polymer-PTX), NG (NG-PTX) and NG-RGD (NG-RGD-PTX) were added to MCF7 cells and HeLa cells and the extent of cell death was investigated after 72 h. […] This supports the hypothesis that the polymeric micellar aggregates have a leaky nature, which leads to free drug being translocated through the cellular membrane. […] This is consistent with the observed slow internalization of nanogels, which should result in a reduced amount of chemotherapeutic inside the cells.
(§2) Cell culture: The cell viabilities of the nanogels were tested with 293T cells. 293T cells were cultured in T75 cell culture flasks using Dulbecco's Modified Eagle Medium/Nutrient Mixture F-12 (DMEM/F12) with 10% fetal bovine serum (FBS) supplement. […] Cell viability was measured using the Alamar Blue assay with each data point measured in triplicate. Fluorescence measurements were made using the plate reader SpectraMax M5 by setting the excitation wavelength at 560 nm and monitoring emission at 590 nm on a black well plate. […] Cell death was measured by the Alamar Blue assay in triplicate.

HeLa cells [3] = experiment: Toxicity of PTX-loaded carriers, Alamar Blue assay; assay type: cell-based; settings: 72 h, 10 μM PTX
Method: as §1, §2

MCF-7 cells = experiment: Cell uptake of free Dox and Dox-loaded nanogels by confocal microscopy; assay type: cell-based; settings: 20 μM Dox concentration, 3-4 h
Method: For further study, the cell uptake of both free Dox and Dox-loaded nanogels (20 μM Dox concentration) was monitored using confocal microscopy over time. Initial internalization of Dox was observed within 3 h for free Dox and NG3-Dox, but not until 4 h for NG1-Dox (FIG. 9c-g). […] This is presumably the reason that the two nanogels show similar toxicities.
Laser Scanning Confocal Microscopy: The laser confocal experiment was performed with MCF-7 cells. MCF-7 cells were cultured in T75 cell culture flask containing DMEM/F12 with 10% FBS supplement. The cells were seeded at 10,000 cells/100 μL in cover slip-bottomed Petri dishes and allowed to grow for 3 days at 37° C. in a 5% CO2 incubator. The cells in 2 mL of culture medium were treated with 200 μL of nanogels containing two dyes or doxorubicin and incubated at 37° C. for different time intervals before monitoring the cells by confocal microscopy.

FITC-β-gal: β-gal functionalized with fluorescein
intracellular delivery of protein alone (HeLa cells [1]): no fluorescence

β-gal: β-galactosidase (pI: 4.8, from E. coli), the model protein
intracellular delivery of protein alone (HeLa cells [1]): not efficient | hydrodynamic diameter [2]: ~10 nm

CC(=O)O[C@H]1C(=O)[C@@]2(C)[C@H]([C@H](OC(=O)c3ccccc3)[C@]3(O)C[C@H](OC(=O)[C@H](O)[C@@H](NC(=O)c4ccccc4)c4ccccc4)C(C)=C1C3(C)C)[C@]1(OC(C)=O)CO[C@@H]1C[C@@H]2O [free PTX, paclitaxel]
toxicity (cell death) (MCF7 cells): highly toxic | toxicity (cell death) (HeLa cells [3]): highly toxic

COc1cccc2c1C(=O)c1c(O)c3c(c(O)c1C2=O)C[C@@](O)(C(=O)CO)C[C@@H]3O[C@H]1C[C@H](N)[C@H](O)[C@H](C)O1 [free Dox, doxorubicin]
intracellular localization of Dox (MCF-7 cells): significant accumulation in the nucleus
